Reference: patent US11773071B2, “Benzothiazepine compounds and their use as bile acid modulators” (Albireo AB, priority 2019, dated 2023)

Legend:
Human LBAT = target: T1, Human LBAT (Homo sapiens, UniProt Q14973); assay: LBAT (h/m) assay, human LBAT-overexpressing cells, 3H-taurocholic acid uptake; type: cell-based; details: 0.3 μM 3H-taurocholic acid and 7.5 μM cold taurocholic acid, 20 minutes, read-out: hLBAT IC50
T1 construct: expressed in transfected cells; Geneticin-selected
T1 sequence (Q14973 1-349): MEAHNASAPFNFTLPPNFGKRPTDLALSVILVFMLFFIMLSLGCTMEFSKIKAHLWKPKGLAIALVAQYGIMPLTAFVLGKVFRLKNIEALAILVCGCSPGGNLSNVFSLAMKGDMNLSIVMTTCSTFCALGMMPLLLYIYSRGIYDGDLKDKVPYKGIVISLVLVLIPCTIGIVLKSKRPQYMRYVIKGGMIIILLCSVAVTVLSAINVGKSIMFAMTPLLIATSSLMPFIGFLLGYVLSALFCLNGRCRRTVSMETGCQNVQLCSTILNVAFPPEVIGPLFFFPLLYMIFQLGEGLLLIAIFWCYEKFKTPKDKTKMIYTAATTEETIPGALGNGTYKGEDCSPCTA
Protocol: LBAT (h/m) Assay Protocol
20,000 cells (Human or Mouse LBAT-overexpressing cells) were seeded in 96-wells plate (Corning CLS3809) in 100 μL MEM-alpha medium (Gibco 12571-063) supplemented with 10% FBS (Gibco 10438026) containing Geneticin (Gibco 10131-027) (1 mg/mL) and incubated at 37° C. in 5% CO2 for 24 hours. After incubation, media was decanted from the wells and cells were washed two times with 300 μL of basal MEM-alpha medium (FBS-free). After decanting basal MEM-alpha medium each time, plates were tapped against paper towel to ensure maximum removal of residual media.
For human LBAT, incubation mix was prepared by adding test inhibitor dilutions (3-fold serial dilution in DMSO (Sigma D2650), 10 points) in MEM-alpha (without FBS) containing 0.3 μM 3H-taurocholic acid (ARC ART-1368) and 7.5 μM cold taurocholic acid (Sigma T4009) (maintaining 0.2% final DMSO concentration). For mouse LBAT, incubation mix was prepared by adding test inhibitor dilutions (3-fold serial dilution in DMSO, 10 points) in MEM-alpha (without FBS) containing 0.3 μM 3H-taurocholic acid and 25 μM cold taurocholic acid maintaining 0.2% final DMSO concentration). 50 μL of incubation mix containing test inhibitors was then added to the wells (in duplicate) and the plates were incubated for 20 minutes in a CO2 incubator at 37° C. After incubation, the reaction was stopped by keeping the plates on ice water mix for 2-3 minutes and then the incubation mix was aspirated completely from the wells. The wells were washed two times with 250 μL of chilled unlabelled 1 mM taurocholic acid dissolved in HEPES (Gibco 15630080)-buffered (10 mM) HBSS (Gibco 14175079) (pH 7.4). The plates were tapped against a paper towel after every wash to ensure maximum removal of blocking buffer. 100 μL of MicroScint-20 (PerkinElmer 6013621) was added to the wells and kept overnight at room temperature before reading the plates in TopCount NXT™ Microplate Scintillation and Luminescence Counter from PerkinElmer under 3H Test protocol (set at 120 seconds reading time per well, with normal plate orientation).
(§1) Preparation of Test Compound Dilutions
(§2) All test compounds were provided in powder form at room temperature. 10 mM DMSO stocks of the test compounds were prepared, aliquoted and stored at −20° C. From the 10 mM DMSO stock of the compounds, a 3-fold serial dilution in DMSO was prepared to get a total of 10 dilutions of the test compounds. 0.5 μL of this dilution in DMSO was added to 250 μL of FBS-free basal media containing 3H-taurocholic acid and cold taurocholic acid to prepare the incubation mixture.

Human IBAT = target: T2, Human IBAT (Homo sapiens, UniProt Q12908); assay: IBAT (h/m) assay, human IBAT-overexpressing cells, 3H-taurocholic acid uptake; type: cell-based; details: 0.25 μM 3H-taurocholic acid and 5 μM cold taurocholic acid, 20 minutes, read-out: hIBAT IC50
T2 construct: expressed in transfected cells; Puromycin-selected
T2 sequence (Q12908 1-348): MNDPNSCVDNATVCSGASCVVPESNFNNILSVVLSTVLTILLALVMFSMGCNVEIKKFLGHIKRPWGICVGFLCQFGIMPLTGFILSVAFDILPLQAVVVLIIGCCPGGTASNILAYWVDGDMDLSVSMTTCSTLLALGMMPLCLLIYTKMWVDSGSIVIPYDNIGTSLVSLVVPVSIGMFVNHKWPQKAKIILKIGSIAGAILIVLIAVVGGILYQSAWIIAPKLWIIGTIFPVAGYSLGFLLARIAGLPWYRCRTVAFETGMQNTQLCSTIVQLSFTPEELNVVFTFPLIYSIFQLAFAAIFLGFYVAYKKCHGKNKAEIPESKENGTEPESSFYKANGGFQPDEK
Protocol: IBAT (h/m) Assay Protocol
10,000 cells (Human or Mouse IBAT-overexpressing cells) were seeded in 96-wells plate (Corning CLS3809) in 200 μL MEM-alpha medium (Gibco 12571-063) supplemented with 10% FBS (Gibco 10438026) containing Puromycin (Gibco A1113803) (10 μg/mL) and incubated at 37° C. in 5% CO2 for 48 hours. After incubation, media was decanted from the wells and cells were washed two times with 300 μL of basal MEM-alpha medium (FBS-free). After decanting basal MEM-alpha medium each time, plates were tapped against paper towel to ensure maximum removal of residual media. Test inhibitor dilutions (highest test concentration being 10 μM, 3-fold serial dilution, 10 points) prepared in DMSO (Sigma D2650) were added in incubation mix (maintaining 0.2% final DMSO concentration) containing 0.25 μM 3H-taurocholic acid (ARC ART-1368) and 5 μM of cold taurocholic acid (Sigma T4009). 50 μL of incubation mix containing test inhibitors was then added to the wells (in duplicate) and the plates were incubated for 20 minutes in a CO2 incubator at 37° C. After incubation, the reaction was stopped by keeping the plates on ice water mix for 2-3 minutes and then the incubation mix was aspirated completely from the wells. The wells were washed two times with 250 μL of chilled unlabelled 1 mM taurocholic acid dissolved in HEPES (Gibco 15630080)-buffered (10 mM) HBSS (Gibco 14175079) (pH 7.4). The plates were tapped against a paper towel after every wash to ensure maximum removal of blocking buffer.
100 μL of MicroScint-20 (PerkinElmer 6013621) was added to the wells and kept overnight at room temperature before reading the plates in TopCount NXT™ Microplate Scintillation and Luminescence Counter from PerkinElmer under 3H Test protocol (set at 120 seconds reading time per well).
as §1, §2

Structure (SMILES)	IC50 (Human LBAT)	IC50 (Human IBAT)
CCCCC1(CCCC)CN(c2ccccc2)c2cc(SC)c(OCC(C)(O)C(=O)O)cc2S(=O)(=O)C1 (single isomer, unassigned) [Example 20, 3-((3,3-dibutyl-7-(methylthio)-1,1-dioxido-5-phenyl-2,3,4,5-tetrahydro-1,5-benzothiazepin-8-yl)oxy)-2-hydroxy-2-methylpropanoic acid]	1390 nM	42 nM
CCCCC1(CCCC)CN(c2ccccc2)c2cc(SC)c(OCC(C)(O)C(=O)O)cc2S(=O)(=O)C1 (single isomer, unassigned) [Example 21, 3-((3,3-dibutyl-7-(methylthio)-1,1-dioxido-5-phenyl-2,3,4,5-tetrahydro-1,5-benzothiazepin-8-yl)oxy)-2-hydroxy-2-methylpropanoic acid]	608 nM	19 nM
CCCCC1(C)CN(c2ccccc2)c2cc(SC)c(OCCC(=O)O)cc2S(=O)(=O)C1 (single isomer, unassigned) [Example 23, 3-((3-butyl-3-methyl-7-(methylthio)-1,1-dioxido-5-phenyl-2,3,4,5-tetrahydro-1,5-benzothiazepin-8-yl)oxy)propanoic acid]	182 nM	334 nM
CCCCC1(C)CN(c2ccccc2)c2cc(SC)c(OC[C@H](O)C(=O)O)cc2S(=O)(=O)C1 (single isomer, unassigned) [Example 32, 3-((3-butyl-3-methyl-7-(methylthio)-1,1-dioxido-5-phenyl-2,3,4,5-tetrahydro-1,5-benzothiazepin-8-yl)oxy)-2-hydroxypropanoic acid]	2260 nM	8 nM
CCCCC1(CCCC)CN(c2ccccc2)c2cc(Cl)c(OCCC(=O)O)cc2S(=O)(=O)C1 [Example 8, 3-((3,3-Dibutyl-7-chloro-1,1-dioxido-5-phenyl-2,3,4,5-tetrahydro-1,5-benzothiazepin-8-yl)oxy)propanoic acid]	376 nM	74 nM
CCCCC1(CCCC)CN(c2ccc(F)c(F)c2)c2cc(SC)c(OCCC(=O)O)cc2S(=O)(=O)C1 [Example 25, 3-((3,3-dibutyl-5-(3,4-difluorophenyl)-7-(methylthio)-1,1-dioxido-2,3,4,5-tetrahydro-1,5-benzothiazepin-8-yl)oxy)propanoic acid]	922 nM	18 nM
CCCCC1(CCCC)CN(c2ccc(F)cc2)c2cc(SC)c(OCCC(=O)O)cc2S(=O)(=O)C1 [Example 26, 3-((3,3-dibutyl-5-(4-fluorophenyl)-7-(methylthio)-1,1-dioxido-2,3,4,5-tetrahydro-1,5-benzothiazepin-8-yl)oxy)propanoic acid]	1540 nM	10 nM
CCCCC1(C)CN(c2ccccc2)c2cc(SC)c(OCC(O)C(=O)O)cc2S(=O)(=O)C1 (stereo not shown) [Example 31, 3-((3-butyl-3-methyl-7-(methylthio)-1,1-dioxido-5-phenyl-2,3,4,5-tetrahydro-1,5-benzothiazepin-8-yl)oxy)-2-hydroxypropanoic acid]	359 nM	10 nM
CCCCC1(CC)CN(c2ccccc2)c2cc(SC)c(OCC(O)C(=O)O)cc2S(=O)(=O)C1 (stereo not shown) [Example 39, 3-((3-butyl-3-ethyl-7-(methylthio)-1,1-dioxido-5-phenyl-2,3,4,5-tetrahydro-1,5-benzothiazepin-8-yl)oxy)-2-hydroxypropanoic acid]	613 nM	4 nM
CCCCC1(CC)CN(c2ccc(F)cc2)c2cc(SC)c(OCC(O)C(=O)O)cc2S(=O)(=O)C1 (stereo not shown) [Example 41, 3-((3-Butyl-3-ethyl-5-(4-fluorophenyl)-7-(methylthio)-1,1-dioxido-2,3,4,5-tetrahydro-1,5-benzothiazepin-8-yl)oxy)-2-hydroxypropanoic acid]	495 nM	3 nM
CCCCC1(CCCC)CN(c2ccccc2)c2cc(OC)c(OCCC(=O)O)cc2S(=O)(=O)C1 [Example 45, 3-((3,3-Dibutyl-7-methoxy-1,1-dioxido-5-phenyl-2,3,4,5-tetrahydro-1,5-benzothiazepin-8-yl)oxy)propanoic acid]	> 6670 nM	11 nM
